Laboratory results published in patent US10945989B2, “Perinatal treatment with a flavonoid agonist of the TrkB receptor for BDNF rescues neurogenesis and behavior in the Ts65Dn mouse model of DS” (ALMA MATER STUDIORUM—Universita' di Bologna, priority 2017, dated 2021).

Columns and labels:
[1] = tested on: NPCs from the SGZ of Ts65Dn mice; assay: Neuron maturation: cells exhibiting neuritic processes, SGZ NPCs; format: cell-based, mouse; details: 96 h, vs standard medium
Procedure: Cells were isolated from the subventricular zone (SVZ) of the lateral ventricle and the subgranular zone (SGZ) of the hippocampal dentate gyrus (DG) of newborn (P1-P2) euploid and Ts65Dn mice. Briefly, brains were removed, the SVZ and SGZ regions were isolated and individually collected in ice-cold PIPES buffer pH 7.4. After centrifugation, tissue was digested for 10 min at 37° C. using Trypsin/EDTA 0.25% (Life Technologies) aided by gentle mechanical dissociation. Cell suspension from each individual mouse was plated onto 25 cm^2 cell-culture flask (Thermo Fisher Scientific) and cultured as floating neurospheres in medium containing basic fibroblast growth factor (bFGF, 10 ng/ml; Peprotech) and epidermal growth factor (EGF, 20 ng/ml; Peprotech) using an established protocol (Meneghini et al., 2014). […] Cell proliferation was quantified as relative luminescence units (RLU) values using Cell Titer-Glo viability assay reagent (Promega) on aVictor^3-V plate reader (PerkinElmer). […] In each experiment, five fields/well (corresponding to about 150-200 cells/well) were counted with a 60× objective by a Leica DMIRB inverted fluorescence microscope. Immunoreactive cells were counted and their percentage over total viable cells was calculated. […]

[2] = tested on: dendritic spines of granule neurons; assay: Golgi staining: dendritic spine density of granule cells; format: in vivo, mouse; details: 5.0 mg/kg P3-P15
Procedure: Euploid and Ts65Dn mice received a daily subcutaneous injection (at 9-10 am) of 7,8-DHF (5.0 mg/kg in vehicle: PBS with 1% DMSO) or vehicle from postnatal day 3 (P3) to postnatal day 15. This timing was chosen because it corresponds to that previously used to test the effects of fluoxetine and other pharmacotherapies in the neonate Ts65Dn mouse (Bianchi et al., 2010b; Giacomini et al., 2015; Stagni et al., 2016). Mice that received 7,8-DHF will be called “treated mice” (treated euploid mice: n=25; treated Ts65Dn mice: n=15). Mice that received the vehicle will be called “untreated mice” (untreated euploid mice: n=35; untreated Ts65Dn mice: n=21). […] The brains were excised and cut along the midline. […]
In Golgi-stained sections from the DG of P15 mice, spines of granule cells were counted using a 100× oil immersion objective lens (1.4 NA). […] For each neuron, 2-3 segments were analyzed in the outer and inner half of the molecular layer, respectively. For each animal, spines were counted in at least 8 neurons. The length of each sampled dendritic segment was determined by tracing its profile and the number of spines was counted manually. The linear spine density was calculated by dividing the total number of spines by the length of the dendritic segment. Spine density was expressed as number of spines per 100 μm dendrite.

Ts65Dn and euploid mice = assay: Morris Water Maze, probe test; format: in vivo, mouse
synaptophysin (SYN) = assay: Western blot of hippocampal homogenates: synaptophysin; format: in vivo, mouse
Procedure: Euploid and Ts65Dn mice received a daily subcutaneous injection (at 9-10 am) of 7,8-DHF (5.0 mg/kg in vehicle: PBS with 1% DMSO) or vehicle from postnatal day 3 (P3) to postnatal day 15. This timing was chosen because it corresponds to that previously used to test the effects of fluoxetine and other pharmacotherapies in the neonate Ts65Dn mouse (Bianchi et al., 2010b; Giacomini et al., 2015; Stagni et al., 2016). Mice that received 7,8-DHF will be called “treated mice” (treated euploid mice: n=25; treated Ts65Dn mice: n=15). Mice that received the vehicle will be called “untreated mice” (untreated euploid mice: n=35; untreated Ts65Dn mice: n=21). […] The brains were excised and cut along the midline. The left hemisphere of a group of mice was fixed by immersion in PFA 4% and frozen, and the left hemisphere of another group of mice was used for Golgi staining. […]
In homogenates of the hippocampal formation of P15 mice, total proteins were obtained as previously described (Trazzi et al., 2011) and the levels of the following proteins were evaluated: BDNF, TrkB full length (TrkB-FL), phosphorylated TrkB (p-TrkB), the truncated form 1 of the TrkB receptor (TrkB-T1), phosphorylated ERK1 (p-ERK1), phosphorylated ERK2 (p-ERK2), ERK1, ERK2, synaptophysin (SYN), GAPDH and α-Tubulin using the antibodies reported in Table 1. […]

[3] = Ts65Dn mice, became similar to untreated euploid mice

O=c1cc(-c2ccccc2)oc2c(O)c(O)ccc12 [7,8-DHF, 7,8-dihydroxyflavone]
concentrations that increased the percentage of cells exhibiting neuritic processes [1]: higher than 1.1 μM
spine density of granule neurons ([2]; P15 Ts65Dn mice): became similar to that of euploid mice
spine density of granule neurons ([2]; P15 euploid mice): no effect on spine density
percentage of time spent at the periphery (probe test) (Ts65Dn and euploid mice; Ts65Dn mice): reduced in comparison with their untreated counterparts
frequency of entrances in the former quadrant (Ts65Dn and euploid mice; [3]): notable increase in the frequency
latency to enter the former platform zone (Ts65Dn and euploid mice; [3]): notable reduction in their latency
proximity to the former platform position (Ts65Dn and euploid mice; [3]): swam closer to the former platform zone
percentage of time spent in quadrants (Ts65Dn and euploid mice; Ts65Dn mice, vs SE quadrant only marginally significant): significantly more time in the former platform quadrant in comparison with the NE quadrant
frequency of entrances in the former quadrant (Ts65Dn and euploid mice; euploid mice): large increase in the frequency of entrances
percentage of time spent at the periphery (probe test) (Ts65Dn and euploid mice; euploid mice, treated vs. untreated): reduction in the percentage of time at the periphery
percentage of time spent in quadrants (Ts65Dn and euploid mice; euploid mice, vs NE and SE quadrants): significantly more time in the former platform quadrant
SYN levels in the hippocampus (synaptophysin (SYN); P15 Ts65Dn mice, became similar to untreated euploid mice): increased SYN levels
SYN levels in the hippocampus (synaptophysin (SYN); P15 euploid mice, vs untreated counterparts): increase in SYN levels
